Test results from patent US20250221413A1, “Use and Preparation Method of Sulfoxamyl, and Oxidation System” (priority 2023, published 2025).
Converted amounts (≈) assume the structure as drawn. “And” between values parts separate entries of the source, which are not always exact repeats. Equal entries are not always repeated. Where two headings read alike, the source gives them in different places.

System: Meloidogyne incognita
Assay: Indoor toxicity test against Meloidogyne incognita second-instar larvae (J2)
Details: 24 h
Description: Materials: the tested nematodes were collected from three different areas, namely cucumber crops in Dawenkou Town, Tai'an City, Shandong Province, and were all identified as southern root-knot nematodes (Meloidogyne incognita). The diseased roots were washed, cut into small sections of 0.5 cm to 1 cm, rinsed in 1% NaClO solution for about 30 s to 60 s, and rinsed with 200-mesh and 500-mesh sieves to collect nematode eggs for later use. The collected eggs were incubated at 25° C. using the Bayman funnel method and the second-instar larvae were collected 1 time per 24 h to ensure that the second-instar larvae selected each time were fresh and of consistent vitality.
The agent was 98% sulfoxamyl technical, and the comparison agents were 96% oxamyl technical and 87% fosthiazate technical.
The preparation for the agent was in accordance with the provisions for preparation of the liquid medicine in the Agricultural Industry Standard of the People's Republic of China NYT 1833.1-2009 “Guideline for laboratory bioassay of pesticides”, as shown in Table 6.
Methods: according to the experimental plan, the test agent was diluted to different mass concentrations, and 0.5 mL of the agent solution and 0.5 mL of the nematode solution (containing about 100 nematodes) were added into a 24-well cell culture plate. The treatment with each concentration of the agent was repeated 4 times, and auxiliary agent control and blank control were also conducted. […]

## CCOP(=O)(SC(C)CC)N1CCSC1=O (stereo not shown) [Fosthiazate, fosthiazate]
3.125 mg/L
  Corrected mortality: 17.51% and 18.63% and 12.52%
  Death count: 24 and 38 and 26 and 20
  Mortality: 23.90% and 25.74% and 16.13%
6.25 mg/L
  Corrected mortality: 33.03% and 29.63% and 42.23%
  Death count: 36 and 60 and 39 and 58
  Mortality: 38.22% and 35.78% and 44.62%
12.5 mg/L
  Corrected mortality: 57.70% and 46.22% and 41.17% and 62.23%
  Death count: 80 and 64 and 69 and 74
  Mortality: 50.39% and 46.31% and 63.79%
25 mg/L
  Corrected mortality: 74.92% and 67.46% and 64.47%
  Death count: 68 and 93 and 116 and 91
  Mortality: 76.86% and 70.30% and 65.94%
50 mg/L
  Corrected mortality: 79.38% and 77.71% and 74.49%
  Death count: 84 and 132 and 94 and 105
  Mortality: 80.98% and 79.66% and 75.54%
100 mg/L
  Corrected mortality: 75.25% and 86.39% and 79.87%
  Death count: 117 and 98 and 141 and 92
  Mortality: 77.17% and 87.58% and 80.70%
  LC90: 146.50 µg/mL (≈ 517 µM)
Meloidogyne incognita
  LC50: 14.6 µg/mL (≈ 51.4 µM)
Meloidogyne incognita, 3.125 mg/L
  mortality at 3.125 µg/mL: 16.6%
Meloidogyne incognita, 6.25 mg/L
  mortality at 6.25 µg/mL: 28.6%
Meloidogyne incognita, 12.5 mg/L
  mortality at 12.5 µg/mL: 59.7%
Meloidogyne incognita, 25 mg/L
  mortality at 25 µg/mL: 64.2%
Meloidogyne incognita, 50 mg/L
  mortality at 50 µg/mL: 82.3%
Meloidogyne incognita, 100 mg/L
  mortality at 100 µg/mL: 80.1%
Meloidogyne incognita, read-out: Corrected mortality, 3.125 mg/L, 24 h
  mortality at 3.125 µg/mL: 12.4%
Meloidogyne incognita, read-out: Corrected mortality, 6.25 mg/L, 24 h
  mortality at 6.25 µg/mL: 25%
Meloidogyne incognita, read-out: Corrected mortality, 25 mg/L, 24 h
  mortality at 25 µg/mL: 62.4%
Meloidogyne incognita, read-out: Corrected mortality, 50 mg/L, 24 h
  mortality at 50 µg/mL: 81.5%
Meloidogyne incognita, read-out: Corrected mortality, 100 mg/L, 24 h
  mortality at 100 µg/mL: 79.2%
